Results reported in patent publication US7816331B2, “Substituted indazole-O-glucosides” (Janssen Pharmaceutica NV, priority 2003, dated 2010).

Legend:
[1] = biological target: T1, human SGLT1 (Homo sapiens, UniProt P13866); assay: Cell-based assay for sodium-dependent glucose transport (14C-AMG uptake), CHOK-SGLT1; conditions: 10 uM compound, CHO-K1 cells stably expressing human SGLT1, Na-dependent 14C-AMG uptake; for inhibition at 10 µM: read-out: CHOK-SGLT1 % Inh (10 uM)
T1 construct: expressed in transfected cells
T1 sequence (P13866 1-664): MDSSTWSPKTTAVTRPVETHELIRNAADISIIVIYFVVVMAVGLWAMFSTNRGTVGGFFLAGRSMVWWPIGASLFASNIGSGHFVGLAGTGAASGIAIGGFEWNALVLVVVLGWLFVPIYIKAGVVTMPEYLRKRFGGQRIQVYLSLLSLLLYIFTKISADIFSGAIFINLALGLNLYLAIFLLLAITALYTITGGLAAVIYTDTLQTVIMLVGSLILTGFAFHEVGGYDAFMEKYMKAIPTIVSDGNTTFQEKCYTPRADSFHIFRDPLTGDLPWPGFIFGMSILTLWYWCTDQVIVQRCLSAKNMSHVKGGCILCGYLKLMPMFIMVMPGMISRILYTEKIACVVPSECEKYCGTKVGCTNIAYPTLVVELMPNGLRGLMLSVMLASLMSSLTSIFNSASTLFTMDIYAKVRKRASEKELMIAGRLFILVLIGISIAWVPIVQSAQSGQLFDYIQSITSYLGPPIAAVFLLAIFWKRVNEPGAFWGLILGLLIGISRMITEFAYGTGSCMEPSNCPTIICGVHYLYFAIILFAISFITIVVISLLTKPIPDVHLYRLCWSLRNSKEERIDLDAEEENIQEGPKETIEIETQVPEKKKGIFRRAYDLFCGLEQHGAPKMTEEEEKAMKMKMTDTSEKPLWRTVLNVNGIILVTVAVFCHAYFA
Protocol: (§1) Cloning of the human SGLT1 and human SGLT2 cDNAs and construction of the mammalian expression vector: The human SGLT1 cDNA (Genbank M24847) was cloned from human small intestine. Human SGLT2 cDNA (Genbank M95549) was cloned from human kidney. Both full cDNAs were subcloned into pcDNA and sequenced to verify the integrity of the construct. Generation of CHO-K1 cells stably expressing human SGLT1 or human SGLT2: Transfection of CHO-K1 cells was performed using DMRIE-C reagent (Life Technologies, Gaithersburg, Md.). Transfectants were then selected in the presence of the antibiotic G418 (Gibco-BRL, Grand Island, N.Y.) at 400 μg/ml. Individual clones were then characterized using the functional assay described below. Cell-based assay for sodium-dependent glucose transport: Cell lines stably expressing human SGLT1 or SGLT2 were then used for functional analysis of Na^+-dependent glucose uptake. Briefly, cells were plated at a density of 65,000 cells per well in a 96-well plate and allowed to grow for 48 hours. Cells were subsequently washed one time with Assay Buffer (50 mM HEPES pH 7.4, 20 mM Tris, 5 mM KCl, 1 mM MgCl2, 1 mM CaCl2 and 137 mM NaCl) and treated with compound in the absence or presence of NaCl for 15 minutes. Cells were then labeled with ^14C-α-methylglucopyranoside (AMG, Sigma, St. Louis, Mo.), a non-metabolizable glucose analog specific for sodium-dependent glucose transporters as previously described (Peng, H. and Lever J. E. Post-transcriptional regulation of Na^+/glucose cotransporter (SGLT1) gene expression in LLC-PK1 cells. J Biol Chem 1995; 270:20536-20542.). After 2 hours the labelled cells were washed three times with ice-cold PBS. After aspiration, cells were solubilized using Microscint 20 (Packard, Meriden, Conn.) and Na-dependent ^14C-AMG uptake was quantified by measuring radioactivity. Plates were counted in a TopCount (Packard, Meriden, Conn.). Results are reported as the % inhibition or IC50 value from a representative experiment. Variability for the functional assay was typically within 20%.

[2] = biological target: T2, human SGLT2 (Homo sapiens, UniProt P31639); assay: Cell-based assay for sodium-dependent glucose transport (14C-AMG uptake), CHOK-SGLT2; conditions: for IC50: CHO-K1 cells stably expressing human SGLT2, Na-dependent 14C-AMG uptake, read-out: CHOK-SGLT2 IC50 (uM) ± SEM; for inhibition at 10 µM: CHO-K1, read-out: CHOK-SGLT2 % Inh. @ 10 μM
T2 construct: expressed in transfected cells
T2 sequence (P31639 1-672): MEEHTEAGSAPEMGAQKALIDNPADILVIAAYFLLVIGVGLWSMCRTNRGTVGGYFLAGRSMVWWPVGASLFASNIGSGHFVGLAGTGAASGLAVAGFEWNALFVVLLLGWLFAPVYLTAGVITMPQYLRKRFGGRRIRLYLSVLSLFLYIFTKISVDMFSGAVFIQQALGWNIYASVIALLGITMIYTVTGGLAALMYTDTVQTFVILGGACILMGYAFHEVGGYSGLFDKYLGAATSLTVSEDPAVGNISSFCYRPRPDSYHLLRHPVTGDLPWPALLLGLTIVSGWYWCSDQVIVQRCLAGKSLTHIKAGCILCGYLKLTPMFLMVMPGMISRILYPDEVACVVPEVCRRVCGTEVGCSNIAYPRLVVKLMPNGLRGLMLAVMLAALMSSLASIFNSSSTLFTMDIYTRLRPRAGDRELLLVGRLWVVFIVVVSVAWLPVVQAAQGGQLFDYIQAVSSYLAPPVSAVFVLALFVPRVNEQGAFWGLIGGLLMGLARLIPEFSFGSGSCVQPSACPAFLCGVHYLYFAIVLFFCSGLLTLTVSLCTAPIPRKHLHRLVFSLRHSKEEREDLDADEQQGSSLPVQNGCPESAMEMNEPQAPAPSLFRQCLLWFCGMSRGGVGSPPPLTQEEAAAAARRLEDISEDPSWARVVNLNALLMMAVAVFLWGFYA
Protocol: as §1, with “experiment.” for “experiment. Variability for the functional assay was typically within 20%.”

| SMILES | inhibition at 10 µM [1] | IC50 [2] | CHOK-SGLT1 % Inh (10 uM) [1] | inhibition at 10 µM [2] |
| --- | --- | --- | --- | --- |
| CC(=O)OC[C@H]1O[C@@H](Oc2cc(C)cc3[nH]nc(CCc4ccc5occc5c4)c23)[C@H](O)[C@@H](O)[C@@H]1O [Example 14, 2-[3-(2-Benzofuran-5-yl-ethyl)-6-methyl-1H-indazol-4-yloxy]-6-O-acetyl-β-D-glucopyranoside] | 42% | 1.5 ± 0.071 µM | – | – |
| Cc1cc(OC2OC(CO)C(O)C(O)C2O)c2c(CCc3ccc4c(c3)CCO4)nn(C)c2c1 [Example 15, 2-{3-[2-(2,3-Dihydro-benzofuran-5-yl)-ethyl]-1,6-dimethyl-1H-indazol-4-yloxy}-β-D-glucopyranoside] | 47% | 0.754 ± 0.069 µM | – | – |
| Cc1cc(OC2OC(CO)C(O)C(O)C2O)c2c(CCc3ccc(NS(C)(=O)=O)cc3)n[nH]c2c1 [Example 16, 2-{3-[2-(4-Methanesulfonylamino-phenyl)-ethyl]-6-methyl-1H-indazol-4-yloxy}β-D-glucopyranoside] | – | – | inactive | 42% |
| Cc1cc(OC2OC(CO)C(O)C(O)C2O)c2c(CCC3CCCCC3)n[nH]c2c1 [Example 17, 2-[3-(2-Cyclohexyl-ethyl)-6-methyl-1H-indazol-4-yloxy]-β-D-glucopyranoside] | – | – | inactive | 67% |
| OC[C@H]1O[C@@H](Oc2cccc3[nH]nc(CCc4ccc5occc5c4)c23)[C@H](O)[C@@H](O)[C@@H]1O [Example 18] | 43% | 1.2 ± 0.071 µM | – | – |
| CCc1cc(O[C@@H]2O[C@H](CO)[C@@H](O)[C@H](O)[C@H]2O)c2c(CCc3ccc4c(c3)CCO4)n[nH]c2c1 [Example 19, 2-{3-[2-(2,3-Dihydro-benzofuran-5-yl)-ethyl]-6-ethyl-1H-indazol-4-yloxy}-D-glucopyranoside] | – | 0.532 ± 0.047 µM | inactive | – |
| COc1ccc(SCc2n[nH]c3cccc(OC4OC(CO)C(O)C(O)C4O)c23)cc1 [Example 20, 2-[3-(4-Methoxy-phenylsulfanylmethyl)-1H-indazol-4-yloxy]-β-D-glucopyranoside] | 38% | – | – | 64% |
| COc1ccc(Cc2n[nH]c3cc(C)cc(O[C@@H]4O[C@H](CO)[C@@H](O)[C@H](O)[C@H]4O)c23)cc1 [Example 21, 2-[3-(4-Methoxy-benzyl)-6-methyl-1H-indazol-4-yloxy]-β-D-glucopyranoside] | – | 0.959 ± 0.118 µM | inactive | – |
| Cc1cc(O[C@@H]2O[C@H](CO)[C@@H](O)[C@H](O)[C@H]2O)c2c(Cc3ccc4c(c3)CCO4)n[nH]c2c1 [Example 22, 2-[3-(2,3-Dihydro-benzofuran-5-ylmethyl)-6-methyl-1H-indazol-4-yloxy]-β-D-glucopyranoside] | – | – | inactive | 40% |
